Paper PMC6109843, “Novel Quinazolinone Inhibitors of ALK2 Flip between Alternate Binding Modes: Structure–Activity Relationship, Structural Characterization, Kinase Profiling, and Cellular Proof of Concept” (Journal of Medicinal Chemistry, 2018)

Tests used:
Assay in all cases: DiscoverX scanEDGE kinase panel
Assay type in all cases: binding
Details in all cases: Cmpd Conc 1000 nM, read-out: % Ctrl
ACVR2B = biological target: T1, ACVR2B (Homo sapiens, UniProt Q13705)
T1 construct: purchased DiscoverX (DiscoveRx) KINOMEscan scanEDGE / KdELECT
From the text: (§1) We hypothesized that inhibitors of the normal and flipped modes would display distinct selectivity profiles.
(§2) 1. 16 and 21 kinome selectivity data
(§3) (P – phosphorylated; nP – nonphosphorylated; % Ctrl values show the % of DNAEtagged
(§4) kinase which was not displaced from a solid supported ligand by a test compound relative to
(§5) untreated control, quantified by qPCR).
(§6) Please note: ALKs 1, 2, 3, 4, 5 and 6 are listed by their gene symbols: ACVRL1 (ALK1), ACVR1
(§7) (ALK2), BMPR1A (ALK3), ACVR1B (ALK4), TGFBR1 (ALK5) and BMPR1B (ALK6)
(§8) Cmpd DiscoverX Gene Symbol Entrez Gene Symbol % Ctrl Cmpd Conc (nM)

BRAF = biological target: T2, BRAF (Homo sapiens, UniProt P15056)
T2 construct: purchased DiscoverX (DiscoveRx) KINOMEscan scanEDGE / KdELECT
From the text: as §1, §2, §3, §4, §5, §6, §7, §8

BRAF(V600E) = biological target: T3, BRAF(V600E) (Homo sapiens, UniProt P15056, V600E)
T3 construct: purchased DiscoverX (DiscoveRx) KINOMEscan scanEDGE / KdELECT
From the text: as §1, §2, §3, §4, §5, §6, §7, §8

CHEK1 = biological target: T4, CHEK1 (Homo sapiens, UniProt O14757)
T4 construct: purchased DiscoverX (DiscoveRx) KINOMEscan scanEDGE / KdELECT
From the text: as §1, §2, §3, §4, §5, §6, §7, §8

CSF1R = biological target: T5, CSF1R (Homo sapiens, UniProt P07333)
T5 construct: purchased DiscoverX (DiscoveRx) KINOMEscan scanEDGE / KdELECT
From the text: as §1, §2, §3, §4, §5, §6, §7, §8

CSNK1D = biological target: T6, CSNK1D (Homo sapiens, UniProt P48730)
T6 construct: purchased DiscoverX (DiscoveRx) KINOMEscan scanEDGE / KdELECT
From the text: as §1, §2, §3, §4, §5, §6, §7, §8

DYRK1B = biological target: T7, DYRK1B (Homo sapiens, UniProt Q9Y463)
T7 construct: purchased DiscoverX (DiscoveRx) KINOMEscan scanEDGE / KdELECT
From the text: as §1, §2, §3, §4, §5, §6, §7, §8

EPHA2 = biological target: T8, EPHA2 (Homo sapiens, UniProt P29317)
T8 construct: purchased DiscoverX (DiscoveRx) KINOMEscan scanEDGE / KdELECT
From the text: as §1, §2, §3, §4, §5, §6, §7, §8

ERBB2 = biological target: T9, ERBB2 (Homo sapiens, UniProt P04626)
T9 construct: purchased DiscoverX (DiscoveRx) KINOMEscan scanEDGE / KdELECT
From the text: as §1, §2, §3, §4, §5, §6, §7, §8

ERBB4 = biological target: T10, ERBB4 (Homo sapiens, UniProt Q15303)
T10 construct: purchased DiscoverX (DiscoveRx) KINOMEscan scanEDGE / KdELECT
From the text: as §1, §2, §3, §4, §5, §6, §7, §8

FGFR2 = biological target: T11, FGFR2 (Homo sapiens, UniProt P21802)
T11 construct: purchased DiscoverX (DiscoveRx) KINOMEscan scanEDGE / KdELECT
From the text: as §1, §2, §3, §4, §5, §6, §7, §8

FYN = biological target: T12, FYN (Homo sapiens, UniProt P06241)
T12 construct: purchased DiscoverX (DiscoveRx) KINOMEscan scanEDGE / KdELECT
From the text: as §1, §2, §3, §4, §5, §6, §7, §8

GSK3B = biological target: T13, GSK3B (Homo sapiens, UniProt P49841)
T13 construct: purchased DiscoverX (DiscoveRx) KINOMEscan scanEDGE / KdELECT
From the text: as §1, §2, §3, §4, §5, §6, §7, §8

IGF1R = biological target: T14, IGF1R (Homo sapiens, UniProt P08069)
T14 construct: purchased DiscoverX (DiscoveRx) KINOMEscan scanEDGE / KdELECT
From the text: as §1, §2, §3, §4, §5, §6, §7, §8

INSR = biological target: T15, INSR (Homo sapiens, UniProt P06213)
T15 construct: purchased DiscoverX (DiscoveRx) KINOMEscan scanEDGE / KdELECT
From the text: as §1, §2, §3, §4, §5, §6, §7, §8

JNK3 = biological target: T16, JNK3 (Homo sapiens, UniProt P53779)
T16 construct: purchased DiscoverX (DiscoveRx) KINOMEscan scanEDGE / KdELECT
From the text: as §1, §2, §3, §4, §5, §6, §7, §8

KIT(D816H) = biological target: T17, KIT(D816H) (Homo sapiens, UniProt P10721, D816H)
T17 construct: purchased DiscoverX (DiscoveRx) KINOMEscan scanEDGE / KdELECT
From the text: as §1, §2, §3, §4, §5, §6, §7, §8

KIT(V559D,T670I) = biological target: T18, KIT(V559D,T670I) (Homo sapiens, UniProt P10721, T670I/V559D)
T18 construct: purchased DiscoverX (DiscoveRx) KINOMEscan scanEDGE / KdELECT
From the text: as §1, §2, §3, §4, §5, §6, §7, §8

MEK1 = biological target: T19, MEK1 (Homo sapiens, UniProt Q02750)
T19 construct: purchased DiscoverX (DiscoveRx) KINOMEscan scanEDGE / KdELECT
From the text: as §1, §2, §3, §4, §5, §6, §7, §8

MLK1 = biological target: T20, MLK1 (Homo sapiens, UniProt P80192)
T20 construct: purchased DiscoverX (DiscoveRx) KINOMEscan scanEDGE / KdELECT
From the text: as §1, §2, §3, §4, §5, §6, §7, §8

NEK6 = biological target: T21, NEK6 (Homo sapiens, UniProt Q9HC98)
T21 construct: purchased DiscoverX (DiscoveRx) KINOMEscan scanEDGE / KdELECT
From the text: as §1, §2, §3, §4, §5, §6, §7, §8

PAK1 = biological target: T22, PAK1 (Homo sapiens, UniProt Q13153)
T22 construct: purchased DiscoverX (DiscoveRx) KINOMEscan scanEDGE / KdELECT
From the text: as §1, §2, §3, §4, §5, §6, §7, §8

PCTK1 = biological target: T23, PCTK1 (Homo sapiens, UniProt Q00536)
T23 construct: purchased DiscoverX (DiscoveRx) KINOMEscan scanEDGE / KdELECT
From the text: as §1, §2, §3, §4, §5, §6, §7, §8

PDGFRB = biological target: T24, PDGFRB (Homo sapiens, UniProt P09619)
T24 construct: purchased DiscoverX (DiscoveRx) KINOMEscan scanEDGE / KdELECT
From the text: as §1, §2, §3, §4, §5, §6, §7, §8

PIK3C2B = biological target: T25, PIK3C2B (Homo sapiens, UniProt O00750)
T25 construct: purchased DiscoverX (DiscoveRx) KINOMEscan scanEDGE / KdELECT
From the text: as §1, §2, §3, §4, §5, §6, §7, §8

PIK3CA = biological target: T26, PIK3CA (Homo sapiens, UniProt P42336)
T26 construct: purchased DiscoverX (DiscoveRx) KINOMEscan scanEDGE / KdELECT
From the text: as §1, §2, §3, §4, §5, §6, §7, §8

PIM1 = biological target: T27, PIM1 (Homo sapiens, UniProt P11309)
T27 construct: purchased DiscoverX (DiscoveRx) KINOMEscan scanEDGE / KdELECT
From the text: as §1, §2, §3, §4, §5, §6, §7, §8

PIM2 = biological target: T28, PIM2 (Homo sapiens, UniProt Q9P1W9)
T28 construct: purchased DiscoverX (DiscoveRx) KINOMEscan scanEDGE / KdELECT
From the text: as §1, §2, §3, §4, §5, §6, §7, §8

PLK1 = biological target: T29, PLK1 (Homo sapiens, UniProt P53350)
T29 construct: purchased DiscoverX (DiscoveRx) KINOMEscan scanEDGE / KdELECT
From the text: as §1, §2, §3, §4, §5, §6, §7, §8

RAF1 = biological target: T30, RAF1 (Homo sapiens, UniProt P04049)
T30 construct: purchased DiscoverX
From the text: as §1, §2, §3, §4, §5, §6, §7, §8

RIOK2 = biological target: T31, RIOK2 (Homo sapiens, UniProt Q9BVS4)
T31 construct: purchased DiscoverX (DiscoveRx) KINOMEscan scanEDGE / KdELECT
From the text: as §1, §2, §3, §4, §5, §6, §7, §8

ROCK2 = biological target: T32, ROCK2 (Homo sapiens, UniProt O75116)
T32 construct: purchased DiscoverX (DiscoveRx) KINOMEscan scanEDGE / KdELECT
From the text: as §1, §2, §3, §4, §5, §6, §7, §8

SIK2 = biological target: T33, SIK2 (Homo sapiens, UniProt Q9H0K1)
T33 construct: purchased DiscoverX (DiscoveRx) KINOMEscan scanEDGE / KdELECT
From the text: as §1, §2, §3, §4, §5, §6, §7, §8

SRC = biological target: T34, SRC (Homo sapiens, UniProt P12931)
T34 construct: purchased DiscoverX (DiscoveRx) KINOMEscan scanEDGE / KdELECT
From the text: as §1, §2, §3, §4, §5, §6, §7, §8

TNK1 = biological target: T35, TNK1 (Homo sapiens, UniProt Q13470)
T35 construct: purchased DiscoverX (DiscoveRx) KINOMEscan scanEDGE / KdELECT
From the text: as §1, §2, §3, §4, §5, §6, §7, §8

TSSK1B = biological target: T36, TSSK1B (Homo sapiens, UniProt Q9BXA7)
T36 construct: purchased DiscoverX (DiscoveRx) KINOMEscan scanEDGE / KdELECT
From the text: as §1, §2, §3, §4, §5, §6, §7, §8

VEGFR2 = biological target: T37, VEGFR2 (Homo sapiens, UniProt P35968)
T37 construct: purchased DiscoverX (DiscoveRx) KINOMEscan scanEDGE / KdELECT
From the text: as §1, §2, §3, §4, §5, §6, §7, §8

ZAP70 = biological target: T38, ZAP70 (Homo sapiens, UniProt P43403)
T38 construct: purchased DiscoverX (DiscoveRx) KINOMEscan scanEDGE / KdELECT
From the text: as §1, §2, §3, §4, §5, §6, §7, §8

p38Ealpha = biological target: T39, p38Ealpha (Homo sapiens, UniProt Q16539)
T39 construct: purchased DiscoverX (DiscoveRx) KINOMEscan scanEDGE / KdELECT
From the text: as §1, §2, §3, §4, §5, §6, §7, §8

p38Ebeta = biological target: T40, p38Ebeta (Homo sapiens, UniProt Q15759)
T40 construct: purchased DiscoverX (DiscoveRx) KINOMEscan scanEDGE / KdELECT
From the text: as §1, §2, §3, §4, §5, §6, §7, §8

T18 sequence (P10721 26-976 V559D/T670I): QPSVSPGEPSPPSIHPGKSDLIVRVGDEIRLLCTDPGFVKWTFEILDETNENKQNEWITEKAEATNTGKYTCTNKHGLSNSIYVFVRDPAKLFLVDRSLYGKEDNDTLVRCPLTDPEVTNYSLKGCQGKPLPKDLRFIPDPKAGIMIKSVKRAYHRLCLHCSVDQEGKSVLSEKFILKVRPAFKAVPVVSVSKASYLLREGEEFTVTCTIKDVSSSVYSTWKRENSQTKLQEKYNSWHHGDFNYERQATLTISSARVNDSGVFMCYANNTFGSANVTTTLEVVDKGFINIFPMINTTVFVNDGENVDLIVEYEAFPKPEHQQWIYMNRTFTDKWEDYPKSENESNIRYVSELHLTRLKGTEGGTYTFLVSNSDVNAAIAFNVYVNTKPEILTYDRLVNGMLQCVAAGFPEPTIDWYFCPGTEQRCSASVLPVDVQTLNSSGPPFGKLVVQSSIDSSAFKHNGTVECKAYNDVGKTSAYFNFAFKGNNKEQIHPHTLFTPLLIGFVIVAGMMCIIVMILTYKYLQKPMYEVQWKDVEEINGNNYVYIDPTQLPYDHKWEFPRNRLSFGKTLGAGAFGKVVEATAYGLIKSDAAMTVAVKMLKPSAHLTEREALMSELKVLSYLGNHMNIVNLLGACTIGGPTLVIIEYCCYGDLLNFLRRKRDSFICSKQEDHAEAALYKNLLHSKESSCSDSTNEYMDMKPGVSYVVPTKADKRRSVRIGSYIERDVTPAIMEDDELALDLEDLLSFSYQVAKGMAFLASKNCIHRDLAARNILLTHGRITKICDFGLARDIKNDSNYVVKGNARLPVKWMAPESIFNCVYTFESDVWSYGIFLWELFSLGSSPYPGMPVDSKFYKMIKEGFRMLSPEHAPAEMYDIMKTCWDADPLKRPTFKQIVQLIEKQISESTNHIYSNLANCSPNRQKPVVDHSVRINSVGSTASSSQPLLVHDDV
T13 sequence (P49841 whole entry): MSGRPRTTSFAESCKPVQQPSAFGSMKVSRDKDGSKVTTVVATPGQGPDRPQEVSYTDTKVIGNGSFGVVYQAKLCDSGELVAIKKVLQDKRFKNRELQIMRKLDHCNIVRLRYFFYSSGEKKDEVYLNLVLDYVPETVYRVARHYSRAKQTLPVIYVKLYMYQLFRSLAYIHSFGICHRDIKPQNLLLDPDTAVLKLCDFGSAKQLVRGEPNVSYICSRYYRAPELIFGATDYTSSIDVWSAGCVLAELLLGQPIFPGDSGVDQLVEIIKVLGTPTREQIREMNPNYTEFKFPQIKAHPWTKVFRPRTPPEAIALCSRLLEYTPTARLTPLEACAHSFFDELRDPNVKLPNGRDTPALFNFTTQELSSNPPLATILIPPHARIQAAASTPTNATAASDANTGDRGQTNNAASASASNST
T31 sequence (Q9BVS4 whole entry): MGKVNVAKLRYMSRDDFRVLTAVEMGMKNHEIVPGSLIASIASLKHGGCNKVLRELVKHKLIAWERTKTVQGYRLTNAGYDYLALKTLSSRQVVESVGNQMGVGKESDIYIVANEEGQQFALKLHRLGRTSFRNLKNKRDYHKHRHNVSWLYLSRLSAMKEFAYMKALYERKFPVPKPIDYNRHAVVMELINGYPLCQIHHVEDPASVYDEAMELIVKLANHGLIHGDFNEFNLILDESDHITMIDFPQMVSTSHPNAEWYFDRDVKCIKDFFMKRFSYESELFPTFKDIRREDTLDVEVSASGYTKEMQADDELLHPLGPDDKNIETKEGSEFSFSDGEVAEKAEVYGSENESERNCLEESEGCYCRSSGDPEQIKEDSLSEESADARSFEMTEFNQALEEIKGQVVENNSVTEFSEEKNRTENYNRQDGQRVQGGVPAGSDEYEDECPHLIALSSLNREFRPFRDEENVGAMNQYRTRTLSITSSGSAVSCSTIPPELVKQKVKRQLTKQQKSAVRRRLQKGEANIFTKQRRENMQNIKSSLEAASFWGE
T40 sequence (Q15759 whole entry): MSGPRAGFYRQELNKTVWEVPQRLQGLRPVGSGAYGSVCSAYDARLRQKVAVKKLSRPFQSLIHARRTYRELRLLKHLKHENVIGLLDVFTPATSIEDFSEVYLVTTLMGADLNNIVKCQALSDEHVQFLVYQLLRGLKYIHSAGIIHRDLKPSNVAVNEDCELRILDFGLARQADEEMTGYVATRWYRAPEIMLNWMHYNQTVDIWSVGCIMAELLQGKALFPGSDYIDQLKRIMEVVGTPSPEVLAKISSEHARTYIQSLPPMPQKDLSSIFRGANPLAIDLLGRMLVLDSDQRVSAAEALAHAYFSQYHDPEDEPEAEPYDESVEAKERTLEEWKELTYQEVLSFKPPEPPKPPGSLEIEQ
T36 sequence (Q9BXA7 whole entry): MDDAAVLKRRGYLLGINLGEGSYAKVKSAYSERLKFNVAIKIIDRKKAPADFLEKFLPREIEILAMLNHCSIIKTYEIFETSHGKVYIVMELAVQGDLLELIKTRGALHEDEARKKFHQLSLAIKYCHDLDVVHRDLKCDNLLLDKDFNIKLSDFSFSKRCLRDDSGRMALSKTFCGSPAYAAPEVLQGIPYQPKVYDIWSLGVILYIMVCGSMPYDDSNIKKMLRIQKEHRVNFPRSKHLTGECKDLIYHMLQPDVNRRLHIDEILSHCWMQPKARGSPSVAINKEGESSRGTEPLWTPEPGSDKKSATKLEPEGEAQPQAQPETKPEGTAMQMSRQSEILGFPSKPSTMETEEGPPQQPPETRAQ
T25 sequence (O00750 whole entry): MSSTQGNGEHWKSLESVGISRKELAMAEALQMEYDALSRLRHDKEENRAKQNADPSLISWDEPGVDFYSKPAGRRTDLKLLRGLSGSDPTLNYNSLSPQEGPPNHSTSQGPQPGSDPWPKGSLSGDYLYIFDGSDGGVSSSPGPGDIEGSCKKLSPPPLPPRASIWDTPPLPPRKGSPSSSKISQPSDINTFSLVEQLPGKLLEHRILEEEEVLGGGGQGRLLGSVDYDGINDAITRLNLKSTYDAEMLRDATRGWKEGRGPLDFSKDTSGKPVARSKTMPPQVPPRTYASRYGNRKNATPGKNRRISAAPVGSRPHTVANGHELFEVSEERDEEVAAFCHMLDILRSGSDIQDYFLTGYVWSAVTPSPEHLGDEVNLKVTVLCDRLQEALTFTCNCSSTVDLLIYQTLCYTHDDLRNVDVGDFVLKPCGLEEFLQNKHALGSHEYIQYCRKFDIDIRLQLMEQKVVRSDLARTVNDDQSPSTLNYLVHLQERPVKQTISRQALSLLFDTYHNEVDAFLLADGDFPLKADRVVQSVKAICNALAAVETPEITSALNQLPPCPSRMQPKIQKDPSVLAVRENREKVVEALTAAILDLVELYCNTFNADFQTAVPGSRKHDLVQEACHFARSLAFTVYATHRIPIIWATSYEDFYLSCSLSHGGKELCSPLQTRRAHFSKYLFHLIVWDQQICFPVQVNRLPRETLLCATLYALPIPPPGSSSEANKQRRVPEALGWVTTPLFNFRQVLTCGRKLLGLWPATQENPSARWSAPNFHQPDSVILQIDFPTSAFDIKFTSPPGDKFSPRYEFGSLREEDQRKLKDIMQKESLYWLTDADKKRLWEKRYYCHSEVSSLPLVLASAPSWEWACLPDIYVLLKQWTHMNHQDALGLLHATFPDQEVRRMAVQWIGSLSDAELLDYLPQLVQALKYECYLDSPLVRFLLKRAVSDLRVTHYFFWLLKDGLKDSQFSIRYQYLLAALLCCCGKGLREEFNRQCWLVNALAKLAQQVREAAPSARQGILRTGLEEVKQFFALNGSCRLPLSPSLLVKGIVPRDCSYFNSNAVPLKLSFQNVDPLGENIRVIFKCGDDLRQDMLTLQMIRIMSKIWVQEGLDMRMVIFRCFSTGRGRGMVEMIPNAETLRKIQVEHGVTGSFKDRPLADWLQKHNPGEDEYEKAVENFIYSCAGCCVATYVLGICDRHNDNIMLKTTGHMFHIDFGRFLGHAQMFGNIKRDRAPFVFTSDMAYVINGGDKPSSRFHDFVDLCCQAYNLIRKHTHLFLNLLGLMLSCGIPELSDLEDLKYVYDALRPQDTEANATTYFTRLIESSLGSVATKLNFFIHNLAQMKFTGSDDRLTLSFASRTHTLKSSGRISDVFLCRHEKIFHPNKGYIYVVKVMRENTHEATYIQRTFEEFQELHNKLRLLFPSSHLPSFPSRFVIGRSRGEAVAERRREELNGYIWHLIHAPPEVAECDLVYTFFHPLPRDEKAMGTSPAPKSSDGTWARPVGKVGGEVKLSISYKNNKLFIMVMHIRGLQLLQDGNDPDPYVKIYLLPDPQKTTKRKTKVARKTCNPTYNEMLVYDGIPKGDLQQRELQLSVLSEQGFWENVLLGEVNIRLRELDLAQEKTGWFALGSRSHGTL
T23 sequence (Q00536 whole entry): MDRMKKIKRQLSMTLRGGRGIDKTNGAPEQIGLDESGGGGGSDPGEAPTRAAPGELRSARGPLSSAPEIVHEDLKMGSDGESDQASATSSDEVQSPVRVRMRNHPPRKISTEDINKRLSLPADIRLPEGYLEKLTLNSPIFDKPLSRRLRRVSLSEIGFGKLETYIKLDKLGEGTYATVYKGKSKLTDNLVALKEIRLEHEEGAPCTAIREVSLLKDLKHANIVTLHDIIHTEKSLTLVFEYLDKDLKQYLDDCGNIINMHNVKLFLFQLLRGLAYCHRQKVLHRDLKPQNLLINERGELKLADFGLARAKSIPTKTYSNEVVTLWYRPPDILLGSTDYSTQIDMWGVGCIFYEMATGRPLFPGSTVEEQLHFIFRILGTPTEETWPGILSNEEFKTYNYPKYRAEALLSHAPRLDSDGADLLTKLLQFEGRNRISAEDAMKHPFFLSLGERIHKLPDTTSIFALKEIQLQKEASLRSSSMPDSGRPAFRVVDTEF
T17 sequence (P10721 26-976 D816H): as the sequence (P10721 26-976 V559D/T670I) above, with D534V, I645T, D791H counted along it

## Cc1nc2ccc(-c3ccnc4ccccc34)c(C)c2c(=O)[nH]1 [compound 21, 2,5-Dimethyl-6-(quinolin-4-yl)quinazolin-4(3H)-one]
ACVR2B
  remaining binding at 1 µM: 67%
BRAF
  remaining binding at 1 µM: 17%
BRAF(V600E)
  remaining binding at 1 µM: 11%
CHEK1
  remaining binding at 1 µM: 100%
CSF1R
  remaining binding at 1 µM: 95%
CSNK1D
  remaining binding at 1 µM: 88%
DYRK1B
  remaining binding at 1 µM: 92%
EPHA2
  remaining binding at 1 µM: 100%
ERBB2
  remaining binding at 1 µM: 100%
ERBB4
  remaining binding at 1 µM: 100%
FGFR2
  remaining binding at 1 µM: 100%
FYN
  remaining binding at 1 µM: 100%
GSK3B
  remaining binding at 1 µM: 97%
IGF1R
  remaining binding at 1 µM: 94%
INSR
  remaining binding at 1 µM: 93%
JNK3
  remaining binding at 1 µM: 79%
KIT(D816H)
  remaining binding at 1 µM: 90%
KIT(V559D,T670I)
  remaining binding at 1 µM: 98%
MEK1
  remaining binding at 1 µM: 85%
MLK1
  remaining binding at 1 µM: 91%
NEK6
  remaining binding at 1 µM: 100%
PAK1
  remaining binding at 1 µM: 96%
PCTK1
  remaining binding at 1 µM: 94%
PDGFRB
  remaining binding at 1 µM: 81%
PIK3C2B
  remaining binding at 1 µM: 98%
PIK3CA
  remaining binding at 1 µM: 100%
PIM1
  remaining binding at 1 µM: 60%
PIM2
  remaining binding at 1 µM: 96%
PLK1
  remaining binding at 1 µM: 75%
RAF1
  remaining binding at 1 µM: 25%
RIOK2
  remaining binding at 1 µM: 97%
ROCK2
  remaining binding at 1 µM: 100%
SIK2
  remaining binding at 1 µM: 100%
SRC
  remaining binding at 1 µM: 98%
TNK1
  remaining binding at 1 µM: 90%
TSSK1B
  remaining binding at 1 µM: 100%
VEGFR2
  remaining binding at 1 µM: 99%
ZAP70
  remaining binding at 1 µM: 99%
p38Ealpha
  remaining binding at 1 µM: 90%
p38Ebeta
  remaining binding at 1 µM: 99%
